Source: ChEMBL document CHEMBL1140952 (J Med Chem, 2009)

What was measured:
[1] = target: Hepatocyte growth factor receptor (Homo sapiens, UniProt P08581); assay: Inhibition of MET
[2] = Antiproliferative activity against Met-dependent human GTL16 cells after 72 hrs by MTS assay; assay type: functional, cell-based; conditions: GTL 16, 72 h
[3] = target: Cytochrome P450 2D6 (Homo sapiens, UniProt P10635); assay: Inhibition of CYP2D6; assay type: ADME
[4] = target: Cytochrome P450 1A2 (Homo sapiens, UniProt P05177); assay: Inhibition of CYP1A2; assay type: ADME
Chain of Cytochrome P450 1A2 (P05177 whole entry): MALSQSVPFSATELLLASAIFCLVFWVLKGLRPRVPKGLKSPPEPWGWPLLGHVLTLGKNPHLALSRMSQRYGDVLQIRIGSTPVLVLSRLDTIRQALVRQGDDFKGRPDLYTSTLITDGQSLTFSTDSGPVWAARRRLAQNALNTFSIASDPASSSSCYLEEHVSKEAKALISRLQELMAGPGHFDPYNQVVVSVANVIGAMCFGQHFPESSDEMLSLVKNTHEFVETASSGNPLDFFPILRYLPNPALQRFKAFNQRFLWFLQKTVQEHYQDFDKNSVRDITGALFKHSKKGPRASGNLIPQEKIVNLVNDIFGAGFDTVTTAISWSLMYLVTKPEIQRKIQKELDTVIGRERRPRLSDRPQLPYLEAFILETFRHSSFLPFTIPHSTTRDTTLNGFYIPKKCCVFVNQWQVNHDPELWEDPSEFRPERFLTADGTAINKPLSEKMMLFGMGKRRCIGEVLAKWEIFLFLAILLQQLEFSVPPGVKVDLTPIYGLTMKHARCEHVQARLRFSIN

[5] = target: Cytochrome P450 2C19 (Homo sapiens, UniProt P33261); assay: Inhibition of CYP2C19; assay type: ADME
Chain of Cytochrome P450 2C19 (P33261 whole entry): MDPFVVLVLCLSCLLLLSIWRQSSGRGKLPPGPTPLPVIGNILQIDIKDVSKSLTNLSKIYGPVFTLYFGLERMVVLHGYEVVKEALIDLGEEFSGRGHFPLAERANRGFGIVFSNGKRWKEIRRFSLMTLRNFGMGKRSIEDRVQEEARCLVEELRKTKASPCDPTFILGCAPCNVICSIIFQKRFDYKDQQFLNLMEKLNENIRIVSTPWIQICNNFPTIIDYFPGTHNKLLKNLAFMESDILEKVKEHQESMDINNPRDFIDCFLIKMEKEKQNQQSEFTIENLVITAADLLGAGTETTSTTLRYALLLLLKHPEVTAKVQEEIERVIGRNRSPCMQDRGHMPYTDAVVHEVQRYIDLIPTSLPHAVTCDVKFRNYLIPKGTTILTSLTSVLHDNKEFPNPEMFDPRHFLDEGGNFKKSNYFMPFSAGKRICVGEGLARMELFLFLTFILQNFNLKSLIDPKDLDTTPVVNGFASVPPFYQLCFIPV

[6] = Metabolic stability in mouse liver microsomes assessed per mg of protein; assay type: ADME, Microsome
[7] = target: Cytochrome P450 2C9 (Homo sapiens, UniProt P11712); assay: Inhibition of CYP2C9; assay type: ADME
Chain of Cytochrome P450 2C9 (P11712 whole entry): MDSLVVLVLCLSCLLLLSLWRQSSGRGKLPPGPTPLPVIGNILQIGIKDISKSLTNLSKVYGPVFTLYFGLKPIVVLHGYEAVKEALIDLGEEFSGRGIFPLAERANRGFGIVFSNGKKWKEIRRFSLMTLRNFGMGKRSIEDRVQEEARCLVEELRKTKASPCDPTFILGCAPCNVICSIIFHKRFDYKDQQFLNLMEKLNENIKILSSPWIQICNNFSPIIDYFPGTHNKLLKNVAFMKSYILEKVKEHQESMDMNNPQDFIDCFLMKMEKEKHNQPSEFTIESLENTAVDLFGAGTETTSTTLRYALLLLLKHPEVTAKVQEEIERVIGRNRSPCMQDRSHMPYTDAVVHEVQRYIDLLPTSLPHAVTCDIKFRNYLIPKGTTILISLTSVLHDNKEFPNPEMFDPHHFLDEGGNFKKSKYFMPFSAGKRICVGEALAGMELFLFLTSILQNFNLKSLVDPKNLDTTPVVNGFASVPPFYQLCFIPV

[8] = target: Cytochrome P450 3A4 (Homo sapiens, UniProt P08684); assay: Inhibition of CYP3A4; assay type: ADME
Chain of Cytochrome P450 3A4 (P08684 whole entry): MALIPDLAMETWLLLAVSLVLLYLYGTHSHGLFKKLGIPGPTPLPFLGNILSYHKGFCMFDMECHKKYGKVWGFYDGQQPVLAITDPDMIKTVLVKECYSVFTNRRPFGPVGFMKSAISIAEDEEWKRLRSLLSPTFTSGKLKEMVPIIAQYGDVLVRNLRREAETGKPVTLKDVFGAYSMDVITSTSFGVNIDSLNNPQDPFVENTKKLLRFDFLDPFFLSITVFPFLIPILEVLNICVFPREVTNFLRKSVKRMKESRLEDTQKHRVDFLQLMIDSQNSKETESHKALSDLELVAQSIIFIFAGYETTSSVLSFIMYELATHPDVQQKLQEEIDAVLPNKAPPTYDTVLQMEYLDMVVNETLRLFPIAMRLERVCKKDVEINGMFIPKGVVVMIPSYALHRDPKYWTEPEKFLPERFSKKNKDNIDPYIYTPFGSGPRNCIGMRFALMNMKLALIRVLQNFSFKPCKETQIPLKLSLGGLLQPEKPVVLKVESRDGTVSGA

Chain of Hepatocyte growth factor receptor (P08581 whole entry): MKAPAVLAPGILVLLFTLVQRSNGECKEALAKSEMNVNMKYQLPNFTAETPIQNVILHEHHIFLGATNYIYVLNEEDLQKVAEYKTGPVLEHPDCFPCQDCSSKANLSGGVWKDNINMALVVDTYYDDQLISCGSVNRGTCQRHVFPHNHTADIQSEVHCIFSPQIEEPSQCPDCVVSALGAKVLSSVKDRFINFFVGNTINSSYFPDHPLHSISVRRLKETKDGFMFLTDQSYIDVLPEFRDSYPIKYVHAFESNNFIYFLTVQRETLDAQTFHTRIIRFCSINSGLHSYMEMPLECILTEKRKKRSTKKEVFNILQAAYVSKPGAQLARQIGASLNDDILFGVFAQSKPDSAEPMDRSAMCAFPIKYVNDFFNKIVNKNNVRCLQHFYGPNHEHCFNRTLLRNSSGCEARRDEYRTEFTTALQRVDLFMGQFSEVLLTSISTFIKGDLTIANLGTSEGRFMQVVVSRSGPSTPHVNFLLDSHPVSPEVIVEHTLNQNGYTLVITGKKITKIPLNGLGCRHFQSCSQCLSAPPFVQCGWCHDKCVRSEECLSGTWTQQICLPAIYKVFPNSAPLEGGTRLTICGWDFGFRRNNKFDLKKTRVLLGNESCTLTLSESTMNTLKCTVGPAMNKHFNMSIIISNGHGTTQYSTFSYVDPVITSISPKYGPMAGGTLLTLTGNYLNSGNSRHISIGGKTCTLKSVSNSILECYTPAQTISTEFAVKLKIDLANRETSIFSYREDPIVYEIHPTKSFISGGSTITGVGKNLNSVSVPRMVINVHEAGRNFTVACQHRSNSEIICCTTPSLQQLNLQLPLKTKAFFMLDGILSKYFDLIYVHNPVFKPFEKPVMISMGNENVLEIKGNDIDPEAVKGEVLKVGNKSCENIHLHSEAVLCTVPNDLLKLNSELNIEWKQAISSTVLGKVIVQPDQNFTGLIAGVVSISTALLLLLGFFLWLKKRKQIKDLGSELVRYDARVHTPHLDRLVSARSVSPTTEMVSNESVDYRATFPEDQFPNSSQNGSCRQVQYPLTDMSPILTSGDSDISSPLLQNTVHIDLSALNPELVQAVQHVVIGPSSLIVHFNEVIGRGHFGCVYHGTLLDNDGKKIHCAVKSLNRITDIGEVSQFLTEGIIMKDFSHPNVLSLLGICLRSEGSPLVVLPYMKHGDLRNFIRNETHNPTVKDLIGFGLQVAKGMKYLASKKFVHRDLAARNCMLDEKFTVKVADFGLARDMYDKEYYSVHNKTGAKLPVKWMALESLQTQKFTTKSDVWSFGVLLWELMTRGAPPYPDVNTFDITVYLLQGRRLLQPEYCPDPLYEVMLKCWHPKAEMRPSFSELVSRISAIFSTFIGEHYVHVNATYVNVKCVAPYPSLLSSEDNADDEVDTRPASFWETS
Chain of Cytochrome P450 2D6 (P10635 whole entry): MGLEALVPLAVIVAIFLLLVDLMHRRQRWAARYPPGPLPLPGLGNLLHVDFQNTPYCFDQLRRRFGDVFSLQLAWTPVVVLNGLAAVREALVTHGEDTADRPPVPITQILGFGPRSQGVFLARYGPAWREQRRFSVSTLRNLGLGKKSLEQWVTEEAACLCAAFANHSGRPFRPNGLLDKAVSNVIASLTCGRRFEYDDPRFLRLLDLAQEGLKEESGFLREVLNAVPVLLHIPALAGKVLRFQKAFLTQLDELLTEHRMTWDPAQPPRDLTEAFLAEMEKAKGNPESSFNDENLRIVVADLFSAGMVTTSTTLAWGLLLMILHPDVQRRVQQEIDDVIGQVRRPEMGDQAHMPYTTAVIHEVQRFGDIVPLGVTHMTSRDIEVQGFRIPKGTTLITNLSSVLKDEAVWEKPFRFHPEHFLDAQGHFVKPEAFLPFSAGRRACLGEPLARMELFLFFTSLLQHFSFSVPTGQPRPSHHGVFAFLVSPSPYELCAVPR

IC50 [1] [nM]	IC50 [3] [nM]	IC50 [4] [nM]	IC50 [5] [nM]	Activity [6] [nmol/min/mg]	IC50 [7] [nM]	IC50 [8] [nM]	Structure (SMILES)	IC50 [2] [nM]
3.2	–	–	–	–	–	–	CC(C)Oc1ccn(-c2ccc(F)cc2)c(=O)c1C(=O)Nc1ccc(Oc2ccnc(N)c2Cl)c(F)c1	140
3.8	–	–	–	–	–	–	NCC#Cc1c(Oc2ccc(NC(=O)c3cccn(-c4ccc(F)cc4)c3=O)cc2F)ccnc1N	210
1	> 20000	> 20000	> 20000	0.012	7000	4000	Nc1nccc(Oc2ccc(NC(=O)c3cccn(-c4ccc(F)cc4)c3=O)cc2F)c1Cl	57
2.7	–	–	–	–	–	–	Nc1nccc(Oc2ccc(NC(=O)c3cccn(-c4ccc(F)cc4)c3=O)cc2F)c1C#CCO	23
–	–	–	–	–	–	–	O=C(Nc1ccc(Oc2ccnc3[nH]ccc23)c(F)c1)c1cccn(-c2ccc(F)cc2)c1=O	60
3.4	–	–	–	–	–	–	Nc1nccc(Oc2ccc(NC(=O)c3cccn(-c4ccc(F)cc4)c3=O)cc2F)c1CO	280
